Reference: patent publication US20210122763A1, “OGA INHIBITOR COMPOUNDS” (Janssen Pharmaceutica NV, priority 2018, published 2021)

How the values were obtained:
[1] = biological target: T1, recombinant human Meningioma Expressed Antigen 5 (MGEA5), also referred to as O-GlcNAcase (OGA) (Homo sapiens, UniProt O60502); assay: OGA biochemical assay (inhibition of FM-GlcNAc hydrolysis, fluorescence); conditions: for Emax: read-out: Enzymatic Emax (%); for IC50: read-out: Enzymatic hOGA, pIC50 (converted)
T1 construct: Full length OGA enzyme was purchased at OriGene (cat #TP322411); purchased OriGene TP322411
T1 sequence (O60502 1-916): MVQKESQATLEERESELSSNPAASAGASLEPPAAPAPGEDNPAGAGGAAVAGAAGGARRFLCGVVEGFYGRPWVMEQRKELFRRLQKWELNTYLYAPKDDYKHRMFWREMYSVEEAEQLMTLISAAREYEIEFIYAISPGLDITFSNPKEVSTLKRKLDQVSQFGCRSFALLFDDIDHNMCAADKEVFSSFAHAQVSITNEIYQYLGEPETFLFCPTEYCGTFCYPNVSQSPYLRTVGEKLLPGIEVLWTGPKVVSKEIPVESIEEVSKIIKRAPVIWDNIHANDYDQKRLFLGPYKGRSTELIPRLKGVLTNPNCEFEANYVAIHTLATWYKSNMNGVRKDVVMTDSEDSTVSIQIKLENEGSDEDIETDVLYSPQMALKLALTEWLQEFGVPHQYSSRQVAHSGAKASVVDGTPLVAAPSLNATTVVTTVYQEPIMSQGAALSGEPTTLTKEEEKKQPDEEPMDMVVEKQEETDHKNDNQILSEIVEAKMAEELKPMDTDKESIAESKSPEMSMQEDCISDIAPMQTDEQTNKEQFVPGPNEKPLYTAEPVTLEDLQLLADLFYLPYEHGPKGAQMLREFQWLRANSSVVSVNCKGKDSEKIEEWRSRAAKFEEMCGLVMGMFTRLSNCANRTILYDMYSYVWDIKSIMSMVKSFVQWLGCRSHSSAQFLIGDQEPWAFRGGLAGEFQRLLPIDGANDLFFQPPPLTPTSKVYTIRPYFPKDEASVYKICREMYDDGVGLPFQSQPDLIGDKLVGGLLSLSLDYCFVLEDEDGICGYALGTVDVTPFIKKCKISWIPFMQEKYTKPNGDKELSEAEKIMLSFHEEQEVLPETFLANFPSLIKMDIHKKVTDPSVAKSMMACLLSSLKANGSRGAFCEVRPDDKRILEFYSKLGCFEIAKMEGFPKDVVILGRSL
Procedure, shortened: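 Full-length OGA at 2 nM was pre-incubated 60 min at room temperature with compound, then FM-GlcNAc at 100 uM final was added in citrate/phosphate buffer pH 7.2 with 0.005% Tween-20. After 6 h at room temperature, carbonate pH 11.0 stopped the reaction. Fluorescence read at 485/538 nm; IC50 and Hill coefficient from curve fit against no-inhibitor and saturating-standard controls.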

Row | Structure (SMILES) | Emax [1] [%] | IC50 [1] [nM] | melting point [°C]
1 | Cc1cc(OC2CCN([C@H](C)c3nc4c(cc3F)OCCO4)CC2)cc(C)n1 (single isomer, unassigned) [Compound 148] | 98 | 6.31 | 
2 | Cc1cc(OC2CCN([C@H](C)c3nc4c(cc3F)CCO4)CC2)cc(C)n1 (single isomer, unassigned) [Compound 144] | 97 | 3.16 | 
3 | Cc1ncc(OC2CCN(C(C)c3nc4c(cc3F)CCO4)CC2)cn1 (stereo not drawn) [Compound 95] | 96 | 5.01 | 127.82
4 | Cc1cc(OC2CCN([C@@H](C)c3nc4nc(C)sc4cc3F)CC2)cc(C)n1 (single isomer, unassigned) [Compound 83] | 101 | 5.01 | 
